Counter-ions that a name gives are not always drawn. Like-named read-outs stand apart in the source and are kept apart here.
Target: T1, 5-HT2A receptor (Homo sapiens, UniProt P28223)
T1 construct: expressed in transfected cells; host or cells: NIH3T3 cells, pSI expression vector
Assay: R-SAT functional receptor assay
Format: cell-based
Settings: for Emax: 120 h
Procedure: The functional receptor assay, Receptor Selection and Amplification Technology (R-SAT), was used (with minor modifications from that previously described U.S. Pat. No. 5,707,798) to screen compounds for efficacy at the 5-HT2A receptor. Briefly, NIH3T3 cells were grown in 96 well tissue culture plates to 70-80% confluence. Cells were transfected for 12-16 hours with plasmid DNAs using superfect (Qiagen Inc.) as per manufacture's protocols. R-SAT's were generally performed with 50 ng/well of receptor and 20 ng/well of Beta-galactosidase plasmid DNA. All receptor and G-protein constructs used were in the pSI mammalian expression vector (Promega Inc) as described in U.S. Pat. No. 5,707,798. The 5HT2A receptor gene was amplified by nested PCR from brain cDNA using the oligodeoxynucleotides based on the published sequence (see Saltzman et. al. Biochem. Biophys. Res. Comm. 181:1469-78 (1991)). Large-scale transfections, cells were transfected for 12-16 hours, then trypsinized and frozen in DMSO. Frozen cells were later thawed, plated at 10,000-40,000 cells per well of a 96 well plate that contained drug. With both methods, cells were then grown in a humidified atmosphere with 5% ambient CO2 for five days. Media was then removed from the plates and marker gene activity was measured by the addition of the beta-galactosidase substrate ONPG (in PBS with 5% NP-40). The resulting colorimetric reaction was measured in a spectrophotometric plate reader (Titertek Inc.)at […]. All data were analyzed using the computer program XLFit (IDBSm). Efficacy is the percent maximal repression compared to repression by a control compound (ritanserin in the case of 5HT2A). pIC50 is the negative of the log(IC50), where IC50 is the calculated concentration in Molar that produces 50% maximal repression.
Briefly, the 5-HT2A receptor, and the alpha subunit of the guanine nucleotide binding protein Gq were transiently transfected into NIH3T3 cells and assayed using the functional receptor assay, Receptor Selection and Amplification Technology (R-SAT) essentially as disclosed in U.S. Pat. No. 5,707,798. Each compound was screened at seven serially diluted concentrations in triplicate. Data were analyzed using least squares fit analysis with GraphPad Prism (San Diego, Calif.), and are reported normalized to percent response.
R-SAT assays (as described in Example 42) were carried out with cells transfected with receptors (listed below) to determine the receptor selectivity profile for compound 26HCH16D. 5HT2A inverse agonist data (IC50 nM; % efficacy) were derived from detailed dose response curves (7 points in triplicate).
(§1) The functional receptor assay, Receptor Selection and Amplification Technology (R-SAT), was used (with minor modifications from that previously described U.S. Pat. No. 5,707,798) to screen compounds for efficacy at the 5-HT2A receptor. The RSAT assay was conducted as described herein.
as §1, with “5,707,798, which is incorporated herein by reference in its entirety)” for “5,707,798)”

[1] = read-out: Percent Efficacy, compared to ritanserin
[2] = Table 3, read-out: pIC50 (converted)
[3] = compared to ritanserin, read-out: 5HT2A % inhibition
[4] = Table 6, read-out: 5HT2A pIC50 (converted)

T1 sequence (P28223 whole entry): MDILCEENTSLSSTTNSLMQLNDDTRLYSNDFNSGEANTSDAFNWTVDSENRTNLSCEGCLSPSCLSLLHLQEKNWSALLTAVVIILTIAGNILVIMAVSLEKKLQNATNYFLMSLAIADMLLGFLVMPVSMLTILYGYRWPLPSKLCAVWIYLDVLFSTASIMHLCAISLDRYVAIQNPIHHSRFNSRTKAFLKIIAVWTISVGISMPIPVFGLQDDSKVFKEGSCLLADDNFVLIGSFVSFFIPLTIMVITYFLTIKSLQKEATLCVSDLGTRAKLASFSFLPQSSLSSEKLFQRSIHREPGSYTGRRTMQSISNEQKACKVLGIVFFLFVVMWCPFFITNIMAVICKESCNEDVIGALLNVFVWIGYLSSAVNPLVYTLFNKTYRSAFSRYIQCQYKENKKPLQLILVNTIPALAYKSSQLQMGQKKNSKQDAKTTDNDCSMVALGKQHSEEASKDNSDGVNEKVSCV

| SMILES | Emax [1] [%] | IC50 [2] [nM] | other results |
| --- | --- | --- | --- |
| Cc1ccc(CN(C(=O)NCc2ccccc2)C2CCN(C)CC2)cc1 [Example 47AKU-22, N-(4-Methylbenzyl)-N-(1-methylpiperidin-4-yl)-N′-benzyl-carbamide] | 117 | 12.6 | – |
| COc1ccc(CNC(=O)N(Cc2ccc(C)cc2)C2CCN(C)CC2)cc1 [Example 47AKU-44, N-(4-Methylbenzyl)-N-(1-methylpiperidin-4-yl)-N′-(4-methoxybenzyl)-carbamide] | 112 | 3.16 | – |
| COc1ccc(CC(=O)N(Cc2ccc(C)cc2)C2CCN(CCCn3c(=O)[nH]c4ccccc43)CC2)cc1 [Example 50ELH89, 2-(4-Methoxyphenyl)-N-(4-methylbenzyl)-N-(1-(3-(1,3-dihydro-2H-benzimidazol-2-one-1-yl)propyl)piperidine-4-yl)acetamide] | – | – | Emax (read-out: Percent Efficacy): 111%; IC50 (pIC50, Table 3): 0.2 nM |
| COc1ccc(CC(=O)N(CCc2ccc(F)cc2)C2CCN(C)CC2)cc1 [Example 50ELH93A, 2-(4-Methoxyphenyl)-N-(2-4-(fluorophenyl)ethyl)-N-(1-methylpiperidin-4-yl)acetamide] | 106 | 2 | – |
| Cc1ccc(CC(=O)N(Cc2ccc(C)cc2)C2CCN(C)CC2)cc1 [Example 57MBT62B, N-((4-methylphenyl)methyl)-N-(1-methylpiperidin-4-yl)-2-(4-methylphenyl)ace tamide hydrochloride] | – | 12.6 | Emax (read-out: Percent Efficacy): 119% |
| Cc1ccc(CN(C(=O)Cc2ccc(Br)cc2)C2CCN(C)CC2)cc1 [Example 57MBT70-1D, N-((4-methylphenyl)methyl)-N-(1-methylpiperidin-4-yl)-2-(4-bromophenyl)acetamide hydrochloride] | – | 12.6 | Emax (read-out: Percent Efficacy): 120% |
| Cc1ccc(CN(C(=O)Cc2ccc(I)cc2)C2CCN(C)CC2)cc1 [Example 57MBT70-2D, N-((4-methylphenyl)methyl)-N-(1-methylpiperidin-4-yl)-2-(4-iodophenyl)acetamide hydrochloride] | – | 6.31 | Emax (read-out: Percent Efficacy): 105% |
| Cc1ccc(CN(C(=O)Cc2ccc(C(C)C)cc2)C2CCN(C)CC2)cc1 [Example 57MBT70-3D, N-((4-methylphenyl)methyl)-N-(1-methylpiperidin-4-yl)-2-(4-(2-propyl)phenylacetamide hydrochloride] | 87 | – | IC50 (pIC50, Table 3): 1.26 nM |
| Cc1ccc(CN(C(=O)Cc2ccc(OC(F)(F)F)cc2)C2CCN(C)CC2)cc1 [Example 57MBT70-4D, N-((4-methylphenyl)methyl)-N-(1-methylpiperidin-4-yl)-2-(4-trifluoromethoxyphenyl)acetamide hydrochloride] | – | 3.16 | Emax (read-out: Percent Efficacy): 98% |
| COc1ccc(CC(=O)N(Cc2ccc(C)cc2)C2CCN(C)CC2)cc1C [Example 57MBT70-8D, N-((4-methylphenyl)methyl)-N-(1-methylpiperidin-4-yl)-2-(4-methoxy-3-methylphenyl)acetamide hydrochloride] | – | 20 | Emax (read-out: Percent Efficacy): 119% |
| CCOc1ccc(CC(=O)N(Cc2ccc(C)cc2)C2CCN(C)CC2)cc1 [Example 58AKU-4, 2-(4-Ethoxyphenyl)-N-(4-methylbenzyl)-N-(1-methylpiperidin-4-yl)acetamide] | 110 | 0.251 | – |
| CCCCOc1ccc(CC(=O)N(Cc2ccc(C)cc2)C2CCN(C)CC2)cc1 [Example 58AKU-5, 2-(4-Butoxyphenyl)-N-(4-methylbenzyl)-N-(1-methylpiperidin-4-yl)acetamide] | 99 | 0.316 | – |
| COc1ccc(CC(=O)N(Cc2ccc(C)cc2)C2CCN(Cc3csc(C)n3)CC2)cc1 [Example 63ELH1A, 2-(4-Methoxyphenyl)-N-(4-methylbenzyl)-N-[1-(2-methylthiazol-4-ylmethyl)piperidin-4-yl]acetamide] | – | – | Emax (read-out: Percent Efficacy): 104%; IC50 (pIC50, Table 3): 5.01 nM |
| CCOc1ccc(CC(=O)N(Cc2ccc(F)cc2)C2CCN(C)CC2)cc1 [Example 63ELH21, 2-(4-Ethoxyphenyl)-N-(4-fluorobenzyl)-N-(1-methylpiperidin-4-yl)acetamide] | 100 | 3.16 | – |
| Cc1ccc(CC2N(Cc3ccc(OC(F)(F)F)cc3)C(=O)OC23CCN(C)CC3)cc1 (stereo not shown) [Example 69NLS21, 8-Methyl-4-(4-methylbenzyl)-3-(4-trifluoromethoxybenzyl)-1-oxa-3,8-diaza-spiro[4.5]decan-2-one, hydrochloride] | – | – | Emax [3]: 83%; IC50 [4]: 0.794 nM |
| COc1ccc(CN2C(=O)OC3(CCN(C)CC3)C2Cc2ccc(C)cc2)cc1 (stereo not shown) [Example 69NLS35, 3-(4-Methoxybenzyl)-8-methyl-4-(4-methylbenzyl)-1-oxa-3,8-diaza-spiro[4.5]decan-2-one, hydrochloride] | – | – | Emax [3]: 103%; IC50 [4]: 0.251 nM |

Now from value to compound, other results behind:

| Emax [1] [%] | IC50 [2] [nM] | SMILES | other results |
| --- | --- | --- | --- |
| 129 | 15.8 | COc1ccc(CC(=O)N(Cc2ccc(F)cc2)C2CCN(C)CC2)cc1 [Example 50ELH8, 2-(4-Methoxyphenyl)-N-(4-fluorobenzyl)-N-(1-methylpiperidin-4-yl)acetamide] | – |
| 92 | 12.6 | COc1ccc(CC(=O)N(CCCc2ccccc2)C2CCN(C)CC2)cc1 [Example 50ELH65, 2-(4-Methoxyphenyl)-N-(3-phenyl-1-propyl)-N-(1-methylpiperidin-4-yl)acetamide] | – |
| 96 | 3.98 | COc1ccc(CC(=O)N(CCc2ccc(C)cc2)C2CCN(C)CC2)cc1 [Example 50ELH68, 2-(4-Methoxyphenyl)-N-[2-(4-methylphenyl)ethyl)-N-(1-methylpiperidin-4-yl)acetamide] | – |
| 72 | 7.94 | COc1ccc(CC(=O)N(CCc2cccc(Cl)c2)C2CCN(C)CC2)cc1 [Example 50ELH93E, 2-(4-Methoxyphenyl)-N-[2-(3-chlorophenyl)ethyl]-N-(1-methylpiperidin-4-yl)acetamide] | – |
| 119 | 10 | COc1ccc(CCN(C(=O)Cc2ccc(OC)cc2)C2CCN(C)CC2)cc1 [Example 50ELH95B, 2-(4-Methoxyphenyl)-N-[2-(4-methoxyphenyl)ethyl]-N-(1-methylpiperidin-4-yl)acetamide] | – |
| 75 | 20 | COc1ccc(CC(=O)N(Cc2ccc(C)cc2)C2CCN(C)CC2)cc1O [Example 57MBT12B, N-((4-methylphenyl)methyl)-N-(1-methylpiperidin-4-yl)-2-(3-hydroxy-4-methoxyphenyl)acetamide] | – |
| 95 | 12.6 | COc1ccc(CC(=O)N(Cc2ccc(C)c(O)c2)C2CCN(C)CC2)cc1 [Example 57MBT54B, N-((3-hydroxy-4-methylphenyl)methyl)-N-(1-methylpiperidin-4-yl)-2-(4-methoxyphenyl)acetamide] | – |
| 111 | 7.94 | COc1ccc(CNC(=O)N(Cc2ccc(C)cc2)C2CCN(C(C)(C)C)CC2)cc1 [Example 58AKU-3, N-(4-Methylbenzyl)-N-(1-t-butylpiperidin-4-yl)-N′-(4-methoxybenzyl)carbamide] | – |
| 101 | 0.158 | Cc1ccc(CN(C(=O)Cc2ccc(OC(C)C)cc2)C2CCN(C)CC2)cc1 [Example 58AKU-6, 2-(4-i-Propoxyphenyl)-N-(4-methylbenzyl)-N-(1-methylpiperidin-4-yl)acetamide] | – |
| 95 | 1 | CCOc1ccc(CC(=O)N(CCc2ccc(F)cc2)C2CCN(C)CC2)cc1 [Example 63ELH20, 2-(4-ethoxyphenyl)-N-[2-(4-fluorophenyl)ethyl]-N-(1-methylpiperidin-4-yl)acetamide] | – |

Reference: patent publication US20080051429A1, “USE OF 4-AMINO-PIPERIDINES FOR TREATING SLEEP DISORDERS” (priority 2006, published 2008)
